Experimental data: patent US12458021B2, “Microbiocidal derivatives” (SYNGENTA CROP PROTECTION AG, priority 2019, dated 2025)

Tests used:
[1] = system: Magnaporthe grisea (Pyricularia oryzae); test: whole plant or invertebrate; format: in vivo; conditions: foliar, read-out: control of Magnaporthe grisea (percent disease control compared to untreated)
[2] = system: Puccinia recondita f. sp. tritici; test: Puccinia recondita f. sp. tritici / wheat / leaf disc preventative (brown rust); format: in vivo; conditions: foliar, wheat leaf segments cv. Kanzler, inoculated 1 day after application, assessed 7-9 days after application, read-out: control of Puccinia recondita f. sp. tritici, preventative (percent disease control compared to untreated)
Experimental: Example B11: Puccinia recondita f. sp. tritici/Wheat/Leaf Disc Preventative (Brown Rust) Wheat leaf segments cv. Kanzler are placed on agar in multiwell plates (24-well format) and sprayed with the formulated test compound diluted in water. The leaf disks are inoculated with a spore suspension of the fungus 1 day after application. The inoculated leaf segments are incubated at 19° C. and 75% rh under a light regime of 12 h light/12 h darkness in a climate cabinet and the activity of a compound is assessed as percent disease control compared to untreated when an appropriate level of disease damage appears in untreated check leaf segments (7-9 days after application). […] […]-190.

[3] = system: Blumeria graminis f. sp. tritici (Erysiphe graminis f. sp. tritici); test: Blumeria graminis f. sp. tritici / wheat / leaf disc preventative (powdery mildew on wheat); format: in vivo; conditions: foliar, wheat leaf segments cv. Kanzler, inoculated 1 day after application, assessed 6-8 days after application, read-out: control of Blumeria graminis f. sp. tritici (percent disease control compared to untreated)
Source text: Example B4: Blumeria graminis f. sp. tritici (Erysiphe graminis f. sp. tritici)/Wheat/Leaf Disc Preventative (Powdery Mildew on Wheat) Wheat leaf segments cv. Kanzler are placed on agar in a multiwell plate (24-well format) and sprayed with the formulated test compound diluted in water. The leaf disks are inoculated by shaking powdery mildew infected plants above the test plates 1 day after application. […] […]-192.

[4] = system: Mycosphaerella graminicola (Septoria tritici); test: Mycosphaerella graminicola (Septoria tritici) / liquid culture (Septoria blotch); format: cell-based; conditions: Zymoseptoria tritici, PDB potato dextrose broth, 24° C., 4-5 days after application, read-out: control of Mycosphaerella graminicola (inhibition of growth, photometric)
Method in brief: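 Conidia from cryogenic storage were mixed into potato dextrose broth and added to test compound in DMSO. Plates were incubated at 24° C, and growth inhibition was read photometrically 4-5 days after application.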

[5] = system: Glomerella lagenarium (Colletotrichum lagenarium); test: Glomerella lagenarium (Colletotrichum lagenarium) / liquid culture (anthracnose); format: cell-based; conditions: Colletotrichum orbiculare, PDB potato dextrose broth, 24° C., 3-4 days after application, read-out: control of Glomerella lagenarium (inhibition of growth, photometric)
Method in brief: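 Conidia from cryogenic storage suspended in potato dextrose broth and added to DMSO compound solution in plates. Incubated at 24° C; growth inhibition read photometrically 3-4 days after application.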

[6] = system: Monographella nivalis (Microdochium nivale); test: Monographella nivalis (Microdochium nivale) / liquid culture (foot rot cereals); format: cell-based; conditions: PDB potato dextrose broth, 24° C., 4-5 days after application, read-out: control of Monographella nivalis (inhibition of growth, photometric)
Method in brief: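 Cryostored M. nivalis conidia mixed into potato dextrose broth and added to 96-well plates holding test compound in DMSO. Incubated at 24° C; growth inhibition read photometrically 4-5 days after application.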

Alternaria solani = Alternaria solani / tomato / leaf disc (early blight); format: in vivo; conditions: foliar, tomato leaf disks cv. Baby, inoculated 2 days after application, assessed 5-7 days after application, read-out: control of Alternaria solani (percent disease control compared to untreated)
Experimental: Example B1: Alternaria solani/Tomato/Leaf Disc (Early Blight) Tomato leaf disks cv. Baby are placed on agar in multiwell plates (24-well format) and sprayed with the formulated test compound diluted in water. The leaf disks are inoculated with a spore suspension of the fungus 2 days after application. The inoculated leaf disks are incubated at 23° C./21° C. […] […]-185.

COc1ccc(N(C#N)c2cc(F)nc(F)c2)nc1C(=O)NC1CCC1(C)C (stereo not shown) [Compound P-21, 6-[cyano-(2,6-difluoro-4-pyridyl)amino]-N-(2,2-dimethylcyclobutyl)-3-methoxy-pyridine-2-carboxamide]
≥ 80%: pest or weed control at 200 ppm [1] | pest or weed control at 200 ppm [2] | pest or weed control at 200 ppm [3]

COc1ccc(Nc2cc(F)nc(F)c2)nc1C(=O)NCC(C)(C)C [Compound P-30, 6-[(2,6-difluoro-4-pyridyl)amino]-N-(2,2-dimethylpropyl)-3-methoxy-pyridine-2-carboxamide]
≥ 80%: pest or weed control at 200 ppm [1] | pest or weed control at 200 ppm [2] | inhibition at 20 ppm [4] | pest or weed control at 200 ppm [3] | inhibition at 20 ppm [5]

COc1ccc(Nc2cc(F)nc(F)c2)nc1C(=O)NC1CCc2cc(C(F)(F)F)ccc21 (stereo not shown) [Compound P-47, 6-[(2,6-difluoro-4-pyridyl)amino]-3-methoxy-N-[5-(trifluoromethyl)indan-1-yl]pyridine-2-carboxamide]
≥ 80%: pest or weed control at 200 ppm [1] | pest or weed control at 200 ppm [2] | inhibition at 20 ppm [4] | inhibition at 20 ppm [5] | inhibition at 20 ppm [6]

COc1ccc(Nc2cc(F)cc(F)c2)nc1C(=O)NCC1COc2ccccc21 (stereo not shown) [Compound P-60, 6-(3,5-difluoroanilino)-N-(2,3-dihydrobenzofuran-3-ylmethyl)-3-methoxy-pyridine-2-carboxamide]
≥ 80%: pest or weed control at 200 ppm [1] | inhibition at 20 ppm [4] | inhibition at 20 ppm [5] | pest or weed control at 200 ppm (Alternaria solani) | inhibition at 20 ppm [6]

COc1ccc(Nc2cc(F)cc(F)c2)nc1C(=O)NC1COC(C2CC2)C1 (stereo not shown) [Compound P-65, N-(5-cyclopropyltetrahydrofuran-3-yl)-6-(3,5-difluoroanilino)-3-methoxy-pyridine-2-carboxamide]
≥ 80%: pest or weed control at 200 ppm [1] | inhibition at 20 ppm [4] | pest or weed control at 200 ppm [3] | inhibition at 20 ppm [5] | pest or weed control at 200 ppm (Alternaria solani) | inhibition at 20 ppm [6]

COc1ccc(Nc2cc(F)cc(F)c2)nc1C(=O)NCc1c(Cl)cncc1Cl [Compound P-66, N-[(3,5-dichloro-4-pyridyl)methyl]-6-(3,5-difluoroanilino)-3-methoxy-pyridine-2-carboxamide]
≥ 80%: pest or weed control at 200 ppm [1] | inhibition at 20 ppm [4] | inhibition at 20 ppm [5] | pest or weed control at 200 ppm (Alternaria solani) | inhibition at 20 ppm [6]

COc1ccc(Nc2cc(F)cc(F)c2)nc1C(=O)NCC1(C)CCOC1 (stereo not shown) [Compound P-68, 6-(3,5-difluoroanilino)-3-methoxy-N-[(3-methyltetrahydrofuran-3-yl)methyl]pyridine-2-carboxamide]
≥ 80%: pest or weed control at 200 ppm [1] | inhibition at 20 ppm [4] | pest or weed control at 200 ppm [3] | inhibition at 20 ppm [5] | pest or weed control at 200 ppm (Alternaria solani) | inhibition at 20 ppm [6]

COc1ccc(Nc2cc(F)cc(F)c2)nc1C(=O)NC1CCS(=O)(=O)CC1 [Compound P-78, 6-(3,5-difluoroanilino)-N-(1,1-dioxothian-4-yl)-3-methoxy-pyridine-2-carboxamide]
≥ 80%: pest or weed control at 200 ppm (Alternaria solani)

COc1ccc(Nc2cnsc2)nc1C(=O)NCC1(C(F)(F)F)CC1 [Compound P-83, 6-(isothiazol-4-ylamino)-3-methoxy-N-[[1-(trifluoromethyl)cyclopropyl]methyl]pyridine-2-carboxamide]
≥ 80%: inhibition at 20 ppm [4] | pest or weed control at 200 ppm [3] | inhibition at 20 ppm [5] | pest or weed control at 200 ppm (Alternaria solani) | inhibition at 20 ppm [6]

C#CCOc1ccc(Nc2cc(F)cc(F)c2)nc1C(=O)NC1CCC1(C)C (stereo not shown) [Compound P-86, 6-(3,5-difluoroanilino)-N-(2,2-dimethylcyclobutyl)-3-prop-2-ynoxy-pyridine-2-carboxamide]
≥ 80%: inhibition at 20 ppm [5] | pest or weed control at 200 ppm (Alternaria solani) | inhibition at 20 ppm [6]

CC(C)Oc1ccc(Nc2cc(F)cc(F)c2)nc1C(=O)NC1CCC1(C)C (stereo not shown) [Compound P-87, 6-(3,5-difluoroanilino)-N-(2,2-dimethylcyclobutyl)-3-isopropoxy-pyridine-2-carboxamide]
≥ 80%: pest or weed control at 200 ppm [1] | inhibition at 20 ppm [5] | pest or weed control at 200 ppm (Alternaria solani) | inhibition at 20 ppm [6]

COc1ccc(Nc2cc(F)nc(F)c2)nc1C(=O)NC1(C2CCCCC2)CC1 [Compound P-88, N-(1-cyclohexylcyclopropyl)-6-[(2,6-difluoro-4-pyridyl)amino]-3-methoxy-pyridine-2-carboxamide]
≥ 80%: pest or weed control at 200 ppm [1] | pest or weed control at 200 ppm [2] | inhibition at 20 ppm [5]

COc1ccc(Nc2cncc(F)c2)nc1C(=O)NCC(C)(C)C [Compound P-105, N-(2,2-dimethylpropyl)-6-[(5-fluoro-3-pyridyl)amino]-3-methoxy-pyridine-2-carboxamide]
≥ 80%: pest or weed control at 200 ppm [1] | pest or weed control at 200 ppm [2] | pest or weed control at 200 ppm [3]

COc1ccc(Nc2cc(F)cc(F)c2)[n+]([O-])c1C(=O)NC(C)(C)C [Compound P-117, N-tert-butyl-6-(3,5-difluoroanilino)-3-methoxy-1-oxido-pyridin-1-ium-2-carboxamide]
≥ 80%: pest or weed control at 200 ppm [1] | pest or weed control at 200 ppm [2] | inhibition at 20 ppm [4] | pest or weed control at 200 ppm [3] | inhibition at 20 ppm [5] | inhibition at 20 ppm [6]

COc1ccc(Nc2cc(F)nc(F)c2)nc1C(=O)NC1(C#N)CCCC1 [Compound P-125, N-(1-cyanocyclopentyl)-6-[(2,6-difluoro-4-pyridyl)amino]-3-methoxy-pyridine-2-carboxamide]
≥ 80%: pest or weed control at 200 ppm [1] | pest or weed control at 200 ppm [2] | pest or weed control at 200 ppm [3] | pest or weed control at 200 ppm (Alternaria solani)

COc1ccc(Nc2cc(Cl)cc(Cl)c2)nc1C(=O)NC(C)(C)C [Compound P-148, N-tert-butyl-6-(3,5-dichloroanilino)-3-methoxy-pyridine-2-carboxamide]
≥ 80%: pest or weed control at 200 ppm [1] | pest or weed control at 200 ppm [2] | inhibition at 20 ppm [4] | inhibition at 20 ppm [5] | pest or weed control at 200 ppm (Alternaria solani) | inhibition at 20 ppm [6]

COc1ccc(Nc2cc(F)cc(F)c2)nc1C(=O)NC1(c2cccc(Cl)n2)CCC1 [Compound P-177, N-[1-(6-chloro-2-pyridyl)cyclobutyl]-6-(3,5-difluoroanilino)-3-methoxy-pyridine-2-carboxamide]
≥ 80%: pest or weed control at 200 ppm [1] | pest or weed control at 200 ppm [2] | inhibition at 20 ppm [4] | pest or weed control at 200 ppm [3] | inhibition at 20 ppm [5] | inhibition at 20 ppm [6]
